Experimental data as given in patent US8158811B2, “Unsaturated fatty hydroxy acid derivatives and the dermocosmetologic use thereof” (Pierre Fabre Dermo-Cosmetique, priority 2005, dated 2012).

Key:
Interleukin 8 = assay: release of Interleukin 8 by keratinocytes NHK stimulated with PMA + calcium ionophore A23187 (ELISA); assay type: cell-based, human; conditions: 3 μg/ml, keratinocytes, PMA + A23187 6 hours
Procedure: In this study, carried out using 96 well plates, we evaluated the activity of hydroxyl alkine acids on the production of Interleukin 8 produced in the keratinocytes by phorbol ester PMA and calcium ionophore A23187.
A suspension of keratinocytes in supplemented KSFM was divided between 96 well plates (3.10^4 cells/wells) and incubated for 16 hours at 37° C. under an atmosphere of 5% CO2. The keratinocytes were then rinsed with PBS in order to eliminate non adhering cells then exposed to the products to be tested included in non supplemented KSFM (which could interfere with the assay).
The concentration tested in culture was 3 μg/ml. This was retained after a preliminary test to evaluate cytotoxicity (neutral red) and is not cytotoxic.
3 wells were used for each treatment. Cells were preincubated for 60 minutes with the products to be tested then stimulated, in parallel to negative controls without stimulant: Phorbol Myristate Acetate (PMA) 1 μm+Calcium ionophore (A23187) 0.1 μm.
Incubation for 6 hours at 37° C. in a humid air atmosphere containing 5% CO2.
The culture medium for each of the wells was recovered, centrifuged at 3000 rpm and stored at −80° C.
Cytokine assay: IL8 was assayed using the ELISA kit immunoenzyme method (immunotech).
The results are given as percentage activity/stimulated control.
The compounds according to the invention were evaluated in terms of anti-inflammatory activity on the release of Interleukin 8 by human keratinocytes NHK stimulated by phorbol ester PMA+calcium ionophore A23187.

prostaglandin 6KF1α = assay: production of prostaglandin 6KF1α by keratinocytes stimulated with calcium ionophore A23187 (ELISA); assay type: cell-based; conditions: 3 μg/ml, A23187 1 μm 5 hours
Procedure: A suspension of keratinocytes in DMEM 10% foetal calf serum was divided into 6 well plates (1.2. 106cells/wells) and incubated for 16 hours at 37° C. in a 5% CO2 atmosphere. The keratinocytes were then rinsed with PBS in order to eliminate non adhering cells then exposed to the products to be tested included in DMEM without foetal calf serum (which could interfere with the assay).
The concentration tested in culture was 3 μg/ml. This was retained as the test concentration after a preliminary evaluation test for cytotoxicity (neutral red) and is not cytotoxic.
For each treatment, three wells were tested. Cells were pre-incubated for 60 minutes with the products to be tested then a stimulating agent was added to stimulate the arachidonic acid cascade (calcium ionophore) which was added for 5 hours: calcium ionophore A23187 was used at a concentration of 1 μm.
After 5 hours in culture, the culture medium for each well was recovered, centrifuged at 3000 rpm and stored at −80° C.
The production of prostaglandin 6KF1α for each of the tests was measured using a EUROMEDEX Elisa Kit.
Results are expressed as the percentage activity/stimulated control.

transglutaminase 1 (TG1) = assay: keratinocyte differentiation, real-time RT-PCR of transglutaminase 1 transcripts; assay type: cell-based, human; conditions: NHK, 48 hours
Procedure: (§1) Normal human keratinocytes (NHK) proliferate and differentiate in vitro, forming stratified layers which mimic the basal organisation of the skin. Extracellular calcium concentrations in excess of 0.1 mM initiate a cascade of genome and non-genome events which take the keratinocytes from a proliferative phase towards a differentiation phase. Keratinocyte differentiation can then be evaluated by studying the expression of several markers such as keratins 1 and 10, transglutaminase 1, desaturase DES2, involucrine, FATP4 and ABCG1 transporters. We therefore evaluated the effect of certain hydroxyalcene carboxylic acids in an in vitro culture model.
(§2) Normal human keratinocytes are isolated from skin explants. They are cultured in KSFM medium (Gibco) with a low calcium content (0.1 mM) containing 25 μg/ml of BPE (bovine pituitary extract) and […] of EGF (epithelium growth factor). 24 hours after culturing, differentiation is triggered by the addition of calcium (final concentration 1.2 mM). The active ingredients are added or not at the same time as calcium at concentrations of 100 and 1 μg/ml in order to determine whether or not they have a potentialising effect on differentiation. Cells were then analysed 48 hours after the addition of calcium and these products.
(§3) Total RNA was extracted under cold conditions from keratinocytes.
(§4) After reverse transcription of mRNA into cDNA, PCRs were made up in 96 well plates (iCycler quantitative PCR apparatus, BioRad). Expression of transcripts of transglutaminase, desaturase (DES2), ABCG1 and FATP4 were standardized with respect to the expression of reference genes (GAPDH, UBC, HPRT).

FATP4 = assay: keratinocyte differentiation, real-time RT-PCR of FATP4 transcripts; assay type: cell-based, human; conditions: NHK, 48 hours
Procedure: as §1, §2, §3, §4

ABCG1 = assay: keratinocyte differentiation, real-time RT-PCR of ABCG1 transcripts; assay type: cell-based, human; conditions: NHK, 48 hours
Procedure: as §1, §2, §3, §4

[1] = test system: intracellular AOSs, fibroblast line L929; assay: in vitro assay of intracellular AOSs (H2DCF-DA probe) after H2O2/iron oxidative stress; assay type: cell-based, murin; conditions: pre-incubation 3 h, L929
Source text: We set up an in vitro study model of oxidative stress induced by H2O2/iron as H2O2 generates huge amounts of intracellular AOSs as a result of a chain reaction triggered by oxidation of membrane lipids.
This technique is based on the use of a fluorescent probe, 6-carboxy-2′,7′-dichlorodihydro fluorescein diacetate, di (acetoxymethyl ester) (H2DCF-DA) which once it penetrates into the cell is deacetylated by intracellular esterases and thus forms H2DCF. This product is oxidized by intracellular AOSs into a highly fluorescent compound: 2′,7′-dichlorofluorescein (DCF) (Suematsu M et al., 1996, Free Radicals Practical Approach, Punchard ed. P 83-99).
The materials and methods used for in vitro assay of intracellular AOSs are given below. • a) Cell tool • Cutaneous murin fibroblast cell line L929. • b) Materials • 96 well flat based microplate. • Cytofluor II cytofluorameter: Ref. PERCEPTIVE BIOSYSTEMS. • c) Reagents • Cell culture reagents: • Dulbecco's Modified Eagle Medium as the culture medium (DMEM) • Foetal calf serum • Phosphate buffer PBS pH 7.4 • Trypsin EDTA (1X) Fluorescent probe • 6-carboxy-2′,7′-dichlorodihydrofluorescein diacetate, di(acetoxymethyl ester) (PM.675,43) Cell stimulation products • Hydrogen peroxide (H2O2) 3% Ref. GIFRER (Gifrer Barbezat Laboratory) • Ferrous ammonium sulphate (Fe^2+) • Ferric ammonium sulphate (Fe^3+) • d) Products tested:
For the evaluation of unsaturated fatty hydroxy acid derivatives, the dilutions are prepared in freshly prepared culture medium for a concentration range of 0.02, 0.2, 2 and 20 ng/ml. • e) Protocol. Cell culturing.
Cells from the fibroblast line L929 were cultured in 96-well flat base microplates in 100 μl of DMEM supplemented with 10% foetal calf serum. These were incubated overnight at 37° C. in a humid atmosphere at 5% CO2. The blank plate without cells was evaluated using 6 wells.
Dilutions of the products to be tested and reference molecule were made up in culture medium without foetal calf serum then deposited in 7 wells at a rate of 100 μl per well.
Cells were then incubated for 3 hours at 37° C. in a humid atmosphere at 5% CO2.
Cells were rinsed in PBS 1X at a rate of 100 μl per well. They were then incubated for 30 minutes at 37° C. in a humid atmosphere at 5% CO2 with 50 μl of the H2DCF-DA probe at 5 μM.
After 30 minutes of contact with the probe alone, cells were incubated for 30 minutes at 37° C. in a humid atmosphere at 5% CO2 with the addition of 25 μl of H2O2 at 800 μM and 25 μl of ferrous iron and ferric iron solution at 8 mM in order to obtain final concentrations of 200 μM of H2O2 and 2 mM of ferrous iron and ferric iron.
Cells were then rinsed with PBS 1X at a rate of 100 μl per well then incubated for 30 minutes at 37° C. in a humid atmosphere at 5% CO2 with 100 μl of PBS 1X.
This incubation for 1 h 30 minutes at 37° C. allows intracellular esterases to deacetylate the probe into H2DCF which can be oxidized by the intracellular AOSs into DCF: a fluorescent compound whose formation is proportional to the quantity of intracellular AOSs.
The intensity of fluorescence is read on a cytofluorimeter at λexcitation=485 nm and λemission=530 nm. This reflects the amount of intracellular AOS produced.
The ratio below makes it possible to calculate the % protection against the production of intracellular AOSs for each product concentration tested (because the intensity of fluorescence or IF reflects the release of intracellular AOSs)
• Pre-incubation: 3 h • Number of tests=3 for all compounds. • Number of tests=18 for vit. E

[2] = test system: membrane lipids, fibroblast line L929; assay: TBARS test, lipid peroxidation after H2O2/Fe2+/Fe3+; assay type: cell-based, murin; conditions: 0.02 ng/ml, pretreated 16 hours
Source text: In order to evaluate membrane changes, we measured lipid peroxidation by in vitro assay of complexes between the products of lipid oxidation and thiobarbituric acid. These complexes are called TBARS (thiobarbituric acid reactive substances) and give the test its name: TBARS Test.
In order to mimic chemical oxidative stress, we treated a fibroblast line (L929) with a complex consisting of hydrogen peroxide (H2O2) and iron (Fe^2+/Fe^3+) thus reconstituting the Fenton reaction which is the source of oxygenated free radicals and particularly the hydroxyl radical (OH°) (D. A Vessey et al. 1992): H2O2+Fe^2+→OH°+OH^−+Fe^3+
The products were evaluated on a murin fibroblast line L929. Cells were pretreated with different concentrations of the product for 16 hours and were then stimulated with the H2O2/Fe^2+/Fe^3+ complex (200 μM−1 mM) for 1 hour. • Stock solutions: 100 mg/ml ethanol, 4° C. • Final solutions: 0.02 ng/ml.
Peroxidation of membrane lipids was analysed by measuring TBARS (Protocol ref. PLN°2, according to Morliere et al, 1991).
[…]. TBARS assays are therefore expressed in pmole/μg of protein. Proteins and TBARS are assayed in the intracellular medium.
Using the TBARS calculation in pmole/μg protein, we calculated the protective efficacy of various products against the oxidation of lipid membranes.
Four separate experiments were carried out. Several compounds were evaluated in the course of these experiments (the test only allows 10 molecules to be evaluated at one time). The compounds were evaluated several times and were chosen as a function of the results obtained in another test which also measured anti-radical activity (assay test for activated oxygen species).
The model used in this experiment (Fenton reaction) triggers considerable lipid peroxidation of the L929 fibroblasts. This massive release of the hydroxyl radical OH° thus generates oxidative stress in the cells, particularly in the membranes. However, in this type of oxidative reaction, the products resulting from lipid peroxidation are internalized in the cells and TBARS are therefore assayed in the intracellular medium.

desaturase DES2 = assay: keratinocyte differentiation, real-time RT-PCR of DES2 transcripts; assay type: cell-based, human; conditions: NHK, 48 hours
Procedure: as §1, §2, §3, §4

[3] = test system: murine melanome cell line B16-F10; assay: melanin synthesis, colorimetric assay, basal and after α-MSH; assay type: cell-based; conditions: Mus musculus, 40 μg/ml, alpha MSH 1 μM, read-out: inhibition of alpha MSH activity (melanin increase)
Procedure: The modulating effect of unsaturated fatty hydroxy acid derivatives on melanogenesis was analysed. To do this, measurement of melanin synthesis by colorimetric assay was performed on a murine melanome cell line: line B16-F10.
The effect of products was investigated in a basal situation and after stimulation by α-MSH in order to determine depigmenting capacity.
Levels of extracellular and intracellular melanin were measured by spectrophotometry at a wavelength of 405 nm according to the protocol described by Anob et al., 1999. The amount of pigment was determined using a standard melanin range and analysis on Microwin software (Berthold Biotechnologies). A total protein assay was carried out for intracellular melanin samples by means of the BCA-Copper method at 540 nm. The standard range was made up using standard protein BSA (Bovine Serum Albumin).

| Induction Factor vs Control (CaCl2 1.2 mM) TG1 (transglutaminase 1 (TG1); 1 μg/ml) | Induction Factor vs Control (CaCl2 1.2 mM) DES2 (desaturase DES2; 1 μg/ml) | Induction Factor vs Control (CaCl2 1.2 mM) TG1 (transglutaminase 1 (TG1); 100 μg/ml) | Induction Factor vs Control (CaCl2 1.2 mM) DES2 (desaturase DES2; 100 μg/ml) | Structure (SMILES) | % inhibition of IL-8 release (Interleukin 8) | % inhibiting activity of evaluated molecules on the production of PG6KF1α Inflammation (prostaglandin 6KF1α) | Induction Factor vs Control (CaCl2 1.2 mM) FATP4 (FATP4; 1 μg/ml) | Induction Factor vs Control (CaCl2 1.2 mM) ABCG1 (ABCG1; 1 μg/ml) | Percentage inhibition of the intracellular production of AOS ([1]; 0.02 ng/ml) | Percentage inhibition of the intracellular production of AOS ([1]; 0.2 ng/ml) | Percentage inhibition of the intracellular production of AOS ([1]; 2 ng/ml) | Percentage inhibition of the intracellular production of AOS ([1]; 20 ng/ml) | % membrane lipid protection, Mean [2] | inhibition at 40 µg/mL [3] | Induction Factor vs Control (CaCl2 1.2 mM) FATP4 (FATP4; 100 μg/ml) | Induction Factor vs Control (CaCl2 1.2 mM) ABCG1 (ABCG1; 100 μg/ml) |
| --- | --- | --- | --- | --- | --- | --- | --- | --- | --- | --- | --- | --- | --- | --- | --- | --- |
|  |  |  |  | O=C(O)C(F)=CCCCCCCCCCO [n=8, R=H, Rn=H, R1=F, 12-hydroxy-dodeca-2-fluoro-2-enoic acid] | Non-active | 44% |  |  |  |  |  |  |  |  |  |  |
| 1.7 | 2.8 |  |  | O=C(O)C(F)=CCCCCCCCCCCCCCCCO (mixture of isomers) [n=14, R=H, Rn=H, R1=F] |  |  | 1.0 | 4.0 | 6% | −17% | −26% | −42% | 35.30% |  |  |  |
|  |  |  |  | O=C1O[C@H]([C@@H](O)CO)C(O)=C1O [vitamin C] |  |  |  |  |  |  |  |  |  | 60% |  |  |
| 1.5 | 1.7 | 0.9 | 1.9 | O=C(O)C(F)=CCCCCO (mixture of isomers) [n=3, R=H, Rn=H, R1=F] |  |  | 1.2 | 1.5 | 3% | −3% | −32% | −51% | 38.14% |  | 1.2 | 1.2 |
